Columns and labels:
[1] = test system: DTH reaction in Balb/c mice; assay: Delayed type hypersensitivity (DTH) reaction, Tetanus Toxoid footpad swelling; format: in vivo; details: female Balb/c mice, sc. once daily day 1-11, Tetanus Toxoid immunization day 2, challenge day 9, footpad swelling
Method: In the delayed type hypersensitivity (DTH) procedure, the effect of a compound on the development of an immune reaction can be observed in mice (details in example 16). Briefly, the compound is administered daily and the animals are immunized subsequently with an antigen in adjuvant. After 7 days the animals are challenged locally by injecting the antigen locally (mostly in the foot) and measuring the subsequently developing local swelling in response to the deposition of the antigen. The degree of this swelling is related to the development of an immune response against the eliciting antigen. The inhibiting action of a compound of this invention on the development of this swelling can be determined, by comparing the treatment group with a placebo treated group. As a reference treatment, administration of glucocorticoids can be used.
Groups of eight female Balb/c (Harlan, Zeist, The Netherlands) mice were used, approximately 8 weeks of age at the start of the experiment. These mice were housed in Macrolon cages, under standard conditions and acclimatized for 3-5 days before the start of the experiment. The groups received either compound or placebo.
They were weighed on day 1 and on the last treatment day. Animals were treated once daily by subcutaneous (sc) injection in the back of the neck or by oral gavage from day 1 till day 11 with a test compound in concentration range from 1.2, 3, 4, 6, to 12 mg/kg. The injection volume was 0.1 mL of a vehicle for injection consisting of physiological saline containing 0.5% gelatin and 5% mannitol. A placebo treated group (vehicle only) and a group treated with 4 mg/kg dexamethasone as reference compound were included in each experiment.
On day 2, animals were immunized with 0.1 ml of a stable suspension of 3.75 Lf Tetanus Toxoid antigen (TT from the RIVM, Zeist, The Netherlands) in 1 mg/ml dimethyl dioctadecylammonium bromide (DDA) from Phase Sep, at 2 places on the breast intradermally.
On day 9 animals were challenged on the ventral side of the right [R] paw with 0.05 mL of a solution containing 50 Lf TT and 1 mg Al(OH)3 per mL. The left [L] footpad (control) received the vehiculum with Al(OH)3 only. After 24 and 48 hours, the left and right footpad thickness (parameters L and R, respectively) were measured with a calipers densitometer in mm and the percentage of antigen-specific footpad swelling was calculated according to the formula: [(R−L)/L]×100%. Results

SMILES	Amount of compound given sc. in mg/kg leading to 50% reduction of the DTH reaction as compared to placebo [1] [mg/kg]	melting point [°C]
C#CC1(O)CCC2C3C(C)CC4=C(CCC(=C)C4)C3CCC21C (stereo not drawn) [example 1, (7α,17α)-7-methyl-3-methylene-19-norpregn-5(10)-en-20-yn-17-ol]	1.9 to 3.4	–
C=C1CCC2=C(C1)C[C@@H](C)[C@@H]1[C@@H]2CC[C@]2(C)[C@@H](O)CC[C@@H]12 [example 2, (7α,17β)-7-methyl-3-methyleneestr-5(10)-en-17-ol]	20	111.8
C#CC1(O)CCC2C3C(C)CC45CC(=C)CCC4(O5)C3CCC21C (stereo not drawn) [example 3, (5β,7α,17α)-5,10-epoxy-7-methyl-3-methylene-19-norpregn-20-yn-17-ol]	11	–
C=C1CC[C@@]23O[C@]2(C1)C[C@@H](C)[C@H]1[C@@H]2CC[C@H](O)[C@@]2(C)CC[C@@H]13 [example 4, (5β,7α,17β)-5,10-epoxy-7-methyl-3-methyleneestran-17-ol]	>20	125
C=C[C@]1(O)CC[C@H]2[C@H]3[C@H](CC[C@@]21C)[C@H]1CCC(=C)C[C@@H]1C[C@H]3C [example 5, (5α,7α,17α)-7-methyl-3-methylene-19-norpregn-20-en-17-ol]	10	–
C=C1CC[C@H]2[C@@H](C1)C[C@@H](C)[C@@H]1[C@@H]2CC[C@@]2(C)[C@H]1CC[C@@]2(O)CC [example 7, (5β,7α,17α)-7-Methyl-3-methylene-19-norpregnan-17-ol]	6	–
